{"source": "patent US20110039860A1", "about": "“SOLUBLE EPOXIDE HYDROLASE INHIBITORS, COMPOSITIONS CONTAINING SUCH COMPOUNDS AND METHODS OF TREATMENT” (priority 2008, published 2011)", "data": [{"biological_target": "T1, human sEH enzyme (Homo sapiens, UniProt P34913)", "T1 construct": "His-tag (pET100 vector) (N, cleaved yes); made in house; host or cells: E. coli", "T1 sequence (P34913 1-555)": "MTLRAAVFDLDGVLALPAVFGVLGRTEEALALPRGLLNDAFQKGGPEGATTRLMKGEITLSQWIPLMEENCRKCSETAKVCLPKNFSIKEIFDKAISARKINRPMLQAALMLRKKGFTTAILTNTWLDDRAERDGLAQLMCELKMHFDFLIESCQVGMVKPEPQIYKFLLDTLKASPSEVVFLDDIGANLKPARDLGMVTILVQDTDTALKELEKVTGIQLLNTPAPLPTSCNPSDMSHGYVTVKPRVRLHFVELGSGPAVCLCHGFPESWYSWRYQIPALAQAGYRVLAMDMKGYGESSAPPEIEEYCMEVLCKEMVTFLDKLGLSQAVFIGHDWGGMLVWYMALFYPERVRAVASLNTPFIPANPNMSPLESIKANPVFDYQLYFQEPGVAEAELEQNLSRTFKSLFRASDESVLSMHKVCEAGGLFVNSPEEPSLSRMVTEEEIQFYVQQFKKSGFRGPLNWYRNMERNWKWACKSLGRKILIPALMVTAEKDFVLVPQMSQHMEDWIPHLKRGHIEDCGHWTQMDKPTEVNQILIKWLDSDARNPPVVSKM", "test": "sEH human enzyme assay (fluorescence based enzyme in vitro assay)", "format": "biochemical", "details": "recombinant human sEH about 1 nM, fluorescence substrate S7 10 uM, 25° C.; read-out: IC50 [nM] for human sEH enzyme inhibition", "description": "Preparation of Recombinant sEH Human Enzyme\nThe DNA for expressing sEH was designed based on a […] sEH cDNA, modified to optimize for expression both in E. coli and insect cells. The designed DNA fragment encodes a protein sequence that is identical to full length human sEH, and the DNA was synthesized in vitro. The DNA was then subcloned into the pET100 vector that will generate a fusion protein with an N-terminal His-tag. The recombinant protein was expressed in E. coli. The sEH enzyme was affinity purified by a Ni^++ column. His-tag was removed by Enter Kinase (EK) digestion. The purified enzyme aliquots were frozen and held at −80° C. for later use. Fluorescence Based Enzyme in vitro Assay For each assay (100 ul), an aliquot of enzymes (about 1 nM final concentration) was incubated with a fluorescence substrate, S7 (10 uM final concentration), in sEH assay buffer (25 mM HEPES, […], 0.1 mg/ml BSA) in a 96-well plate. The kinetic reaction reading (Ex330/Em465) was conducted using a plate reader, Spectra max (Molecular Devices) at 25° C.", "units": {"IC50": "nM"}, "values": [{"smiles": "FC(F)(F)c1cccnc1-c1ccc(NCC2CCCCC2)nc1", "note": "[Compound I-7]", "IC50": 32}, {"smiles": "CC(C)(C)OC(=O)N1CCC(CNc2ccc(-c3cnccc3C(F)(F)F)cn2)CC1", "note": "[Compound I-15]", "IC50": 8}, {"smiles": "Clc1ccccc1-c1ccc(NCC2CCCCC2)nc1", "note": "[Compound I-11]", "IC50": 32}, {"smiles": "FC(F)(F)c1ccccc1-c1ccc(NC2CCOCC2)nc1", "note": "[Compound I-24]", "IC50": 200}, {"smiles": "FC(F)(F)c1ccccc1-c1ccc(NCCc2c[nH]cn2)nc1", "note": "[Compound I-21]", "IC50": 100}, {"smiles": "FC(F)(F)c1ccccc1-c1ccc(NCc2cccnc2)nc1", "note": "[Compound I-19]", "IC50": 92}, {"smiles": "FC(F)(F)c1ccccc1-c1ccc(NCC2CCCCC2)nn1", "note": "[Compound I-17]", "IC50": 8}, {"smiles": "FC(F)(F)c1cc(-c2cccnc2)nn1-c1ccc(NCC2CCCCC2)nc1", "note": "[III-1, N-(cyclohexylmethyl)-5-[3-pyridin-3-yl-5-(trifluoromethyl)-1H-pyrazol-1-yl]pyridin-2-amine]", "IC50": 3}, {"smiles": "FC(F)(F)c1cc(-c2nnn[nH]2)ccc1-c1ccc(NCC2CCCCC2)nc1", "note": "[Compound I-16]", "IC50": 53}, {"smiles": "FC(F)(F)c1ccccc1-c1ccc(NCCN2CCN(c3cccc(Cl)c3)CC2)nc1", "note": "[Compound I-23]", "IC50": 7}, {"smiles": "FC(F)(F)c1ccccc1-c1ccc(NCC2CC2)nc1", "note": "[Compound I-26]", "IC50": 53}, {"smiles": "Fc1cccc(Cl)c1CCNc1ccc(-c2c(F)cccc2C(F)(F)F)cn1", "note": "[Compound I-5]", "IC50": 2}, {"smiles": "FC(F)(F)c1ccnc(N2CCN(CCNc3ccc(-c4ccccc4C(F)(F)F)cn3)CC2)n1", "note": "[Compound I-25]", "IC50": 26}, {"smiles": "NC(=O)c1ccc(-c2ccc(NCC3CCCCC3)nc2)c(C(F)(F)F)c1", "note": "[II-5]", "IC50": 4}, {"smiles": "FC(F)(F)c1ccccc1-c1ccc(NCCC(c2ccccc2)c2ccccc2)nc1", "note": "[Compound I-9]", "IC50": 832}, {"smiles": "O=C(O)[C@H]1CC[C@H](CCNc2ccc(-c3c(F)cccc3C(F)(F)F)cn2)CC1", "note": "[Compound I-2]", "IC50": 19}, {"smiles": "FC(F)(F)c1ccccc1-c1cnc(NCC2CCCCC2)cn1", "note": "[Compound I-18]", "IC50": 651}, {"smiles": "Fc1cccc(C(F)(F)F)c1-c1ccc(NCCc2c[nH]cn2)nc1", "note": "[Compound I-20]", "IC50": 67}, {"smiles": "O=C(O)C12CCC(CNc3ccc(-c4c(F)cccc4C(F)(F)F)cn3)(CC1)C2", "note": "[Compound I-22]", "IC50": 130}, {"smiles": "O=C(O)c1cccc(-c2ccc(-c3ccc(NCC4CCCCC4)nc3)c(C(F)(F)F)c2)c1", "note": "[II-3]", "IC50": 5}, {"smiles": "O=C(NCC1CCCCC1)c1ccc(-c2ccc(NCC3CCCCC3)nc2)c(C(F)(F)F)c1", "note": "[II-4]", "IC50": 4}, {"smiles": "O=C(O)C1CCN(C(=O)c2ccc(-c3ccc(NCCc4c(F)cccc4Cl)nc3)c(C(F)(F)F)c2)CC1", "note": "[II-1, 1-[4-(6-{[2-(2-chloro-6-fluorophenyl)ethyl]amino}pyridin-3-yl)-3-(trifluoromethyl)benzoyl]piperidine-4-carboxylic acid]", "IC50": 200}, {"smiles": "FC(F)(F)Oc1cccc(CNc2ccc(-c3ccccc3C(F)(F)F)cn2)c1", "note": "[Compound I-12]", "IC50": 52}, {"smiles": "O=C(N[C@H]1CC[C@H](CNc2ccc(-c3ccccc3C(F)(F)F)cn2)CC1)c1ccccc1C(F)(F)F", "note": "[Compound I-14]", "IC50": 7}, {"smiles": "FC(F)(F)c1ccccc1-c1ccc(NCc2ccccc2)nc1", "note": "[Compound I-8]", "IC50": 25}, {"smiles": "O=C(O)CCCOc1ccc(-c2ccc(NCC3CCCCC3)nc2)c(C(F)(F)F)c1", "note": "[II-2]", "IC50": 66}, {"smiles": "O=C(c1cccnc1)N1CCC(CNc2ccc(-c3ccccc3C(F)(F)F)cn2)CC1", "note": "[Compound I-4]", "IC50": 9}, {"smiles": "FC(F)(F)c1ccccc1-c1ccc(NCc2cccc3ccccc23)nc1", "note": "[Compound I-10]", "IC50": 31}, {"smiles": "Fc1cccc(C(F)(F)F)c1-c1ccc(NCC2CCCCC2)nc1", "note": "[Compound I-1, N-(cyclohexylmethyl)-5-[2-fluoro-6-(trifluoromethyl)phenyl]pyridin-2-amine]", "IC50": 1}, {"smiles": "O=S(=O)(c1ccccc1C(F)(F)F)N1CCC(CNc2ccc(-c3ccccc3C(F)(F)F)cn2)CC1", "note": "[Compound I-13]", "IC50": 18}, {"smiles": "O=C(c1ccccc1C(F)(F)F)N1CCC(CNc2ccc(-c3ccccc3C(F)(F)F)cn2)CC1", "note": "[Compound I-6]", "IC50": 3}]}]}
